These compounds were tested against T1, F508del (Homo sapiens, UniProt P13569, DEL508-508) (assay: Protocol 2: FRET membrane potential optical assay (VIPR), identification of correction compounds). Settings: F508del CFTR modulator activity; compounds of Table 1; read-out: EC30.
T1 construct: expressed in transfected cells
Assay type: cell-based
Method in brief: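 NIH3T3 mouse fibroblasts stably expressing F508del were treated with test compound for 16 hrs at 37° C. in serum-free medium; 27° C. incubation served as positive control. F508del was activated with 10 μM forskolin plus 20 μM genistein in Cl^−-free medium, and Cl^− efflux-driven depolarization was read by DiSBAC2(3)/CC2-DMPE FRET.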

T1 sequence (P13569 with tags, fused parts or gaps DEL508-508): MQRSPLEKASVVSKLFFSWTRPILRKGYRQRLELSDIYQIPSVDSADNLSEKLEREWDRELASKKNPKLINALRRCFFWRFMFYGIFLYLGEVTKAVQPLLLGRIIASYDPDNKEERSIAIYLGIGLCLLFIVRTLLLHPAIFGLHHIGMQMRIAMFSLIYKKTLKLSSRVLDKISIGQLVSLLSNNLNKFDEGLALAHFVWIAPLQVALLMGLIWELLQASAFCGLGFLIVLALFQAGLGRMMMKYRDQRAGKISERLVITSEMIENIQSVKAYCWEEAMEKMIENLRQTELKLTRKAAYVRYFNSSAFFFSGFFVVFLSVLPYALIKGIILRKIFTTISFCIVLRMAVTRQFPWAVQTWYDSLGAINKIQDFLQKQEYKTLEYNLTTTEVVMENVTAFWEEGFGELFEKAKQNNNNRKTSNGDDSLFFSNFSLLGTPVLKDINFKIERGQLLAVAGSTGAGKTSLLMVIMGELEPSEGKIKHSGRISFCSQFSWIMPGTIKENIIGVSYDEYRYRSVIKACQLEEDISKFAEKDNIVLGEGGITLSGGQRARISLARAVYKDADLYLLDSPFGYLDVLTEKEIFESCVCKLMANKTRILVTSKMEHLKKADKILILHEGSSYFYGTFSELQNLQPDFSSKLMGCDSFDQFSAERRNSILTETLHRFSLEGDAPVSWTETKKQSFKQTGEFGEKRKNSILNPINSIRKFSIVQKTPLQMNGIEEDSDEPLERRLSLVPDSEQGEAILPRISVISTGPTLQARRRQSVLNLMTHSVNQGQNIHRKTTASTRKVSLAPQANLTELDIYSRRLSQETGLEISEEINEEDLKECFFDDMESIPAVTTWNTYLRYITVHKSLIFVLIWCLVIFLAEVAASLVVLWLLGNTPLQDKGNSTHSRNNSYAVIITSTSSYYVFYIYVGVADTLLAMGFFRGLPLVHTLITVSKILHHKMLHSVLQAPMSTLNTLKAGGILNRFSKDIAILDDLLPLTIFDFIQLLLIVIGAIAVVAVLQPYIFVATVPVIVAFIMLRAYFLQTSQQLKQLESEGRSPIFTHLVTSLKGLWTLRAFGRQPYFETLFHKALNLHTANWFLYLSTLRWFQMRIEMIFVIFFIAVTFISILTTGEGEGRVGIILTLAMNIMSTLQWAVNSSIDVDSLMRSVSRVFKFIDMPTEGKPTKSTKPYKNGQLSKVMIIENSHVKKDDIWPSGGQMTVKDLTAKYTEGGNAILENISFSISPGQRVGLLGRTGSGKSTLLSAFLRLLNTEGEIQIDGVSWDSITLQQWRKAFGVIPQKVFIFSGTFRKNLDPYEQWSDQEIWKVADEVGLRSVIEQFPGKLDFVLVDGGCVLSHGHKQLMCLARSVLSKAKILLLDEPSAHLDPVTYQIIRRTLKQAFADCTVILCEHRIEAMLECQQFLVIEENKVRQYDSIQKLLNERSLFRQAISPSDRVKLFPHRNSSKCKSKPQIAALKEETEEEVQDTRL

Question: How did the EC30 turn out when CC1CN(c2ncccc2C(=O)NS(=O)(=O)c2cccc(OCc3ccc(C(C)C)cc3)n2)C(C)(C)C1 (stereo not drawn) [Compound 2415, N—[[6-[(4-isopropylphenyl)methoxy]-2-pyridyl]sulfonyl]-2-(2,2,4-trimethylpyrrolidin-1-yl)pyridine-3-carboxamide] was run?
Answer: Its EC30 is < 3000 nM.

Question: How did the EC30 turn out when C[C@@H]1CN(c2nc(-c3cccc(CO)c3)ccc2C(=O)NS(=O)(=O)c2ccc[nH]c2=O)C(C)(C)C1 [Compound 1997, 6-[3-(hydroxymethyl)phenyl]-N-[(2-oxo-1H-pyridin-3-yl)sulfonyl]-2-[(4S)-2,2,4-trimethylpyrrolidin-1-yl]pyridine-3-carboxamide] was run?
Answer: The EC30 was 3000 to 10000 nM.

Question: How did the EC30 turn out when CC1CCCN(c2cccc(S(=O)(=O)NC(=O)c3cccnc3N3CC(C)CC3(C)C)n2)C1 (stereo not drawn) [Compound 2030, N—[[6-(3-methyl-1-piperidyl)-2-pyridyl]sulfonyl]-2-(2,2,4-trimethylpyrrolidin-1-yl)pyridine-3-carboxamide] was run?
Answer: The EC30 was < 3000 nM.

Question: CC(C)COc1cc(F)cc(-c2cc(N3C[C@@H](C)CC3(C)C)c(C(=O)NS(=O)(=O)c3cccc(N)n3)cn2)c1 [Compound 2679, N-[(6-amino-2-pyridyl)sulfonyl]-6-(3-fluoro-5-isobutoxy-phenyl)-4-[(4S)-2,2,4-trimethylpyrrolidin-1-yl]pyridine-3-carboxamide] was tested. Which EC30 did it give?
Answer: Its EC30 is 3000 to 10000 nM.

Question: For C[C@@H]1CN(c2nc(-c3cc(O)cc(F)c3)ccc2C(=O)NS(=O)(=O)c2cccnc2N)C(C)(C)C1 [Compound 2349, N-[(2-amino-3-pyridyl)sulfonyl]-6-(3-fluoro-5-hydroxy-phenyl)-2-[(4S)-2,2,4-trimethylpyrrolidin-1-yl]pyridine-3-carboxamide], which EC30 is on record?
Answer: The EC30 was 3000 to 10000 nM.

Question: With CC(C)COc1cc(F)cc(-c2ccc(C(=O)NS(=O)(=O)N3CC(C)(O)C3)c(N3C[C@@H](C)CC3(C)C)n2)c1 [Compound 2398, 6-(3-fluoro-5-isobutoxy-phenyl)-N-(3-hydroxy-3-methyl-azetidin-1-yl)sulfonyl-2-[(4S)-2,2,4-trimethylpyrrolidin-1-yl]pyridine-3-carboxamide] as the compound, how does the EC30 read?
Answer: Its EC30 is < 3000 nM.

Question: For CC1CN(c2ncc(-c3ccc(CO)cc3)cc2C(=O)NS(=O)(=O)c2cccc(N)n2)C(C)(C)C1 (stereo not drawn) [Compound 2088, N-[(6-amino-2-pyridyl)sulfonyl]-5-[4-(hydroxymethyl)phenyl]-2-(2,2,4-trimethylpyrrolidin-1-yl)pyridine-3-carboxamide], which EC30 is on record?
Answer: Its EC30 is 3000 to 10000 nM.

Question: For CC1CN(c2ncccc2C(=O)NS(=O)(=O)c2cccc(Nc3ccc(C(F)(F)F)cc3)n2)C(C)(C)C1 (stereo not drawn) [Compound 2292, N—[[6-[4-(trifluoromethyl)anilino]-2-pyridyl]sulfonyl]-2-(2,2,4-trimethylpyrrolidin-1-yl)pyridine-3-carboxamide], which EC30 is on record?
Answer: The EC30 was < 3000 nM.

Question: CC(CO)COc1ccn(-c2ccc(C(=O)NS(=O)(=O)c3cccnc3N)c(N3C[C@@H](C)CC3(C)C)n2)n1 (stereo partly drawn) [Compound 2192, N-[(2-amino-3-pyridyl)sulfonyl]-6-[3-(3-hydroxy-2-methyl-propoxy)pyrazol-1-yl]-2-[(4S)-2,2,4-trimethylpyrrolidin-1-yl]pyridine-3-carboxamide] was tested. Which EC30 did it give?
Answer: The EC30 was < 3000 nM.

Question: Which EC30 does the source give for CC(C)(C)c1ccc(C(=O)NS(=O)(=O)c2cccc(N)n2)c(N2CCC(CC3CC3)C2(C)C)n1 (stereo not drawn) [Compound 2242, N-[(6-amino-2-pyridyl)sulfonyl]-6-tert-butyl-2-[3-(cyclopropylmethyl)-2,2-dimethyl-pyrrolidin-1-yl]pyridine-3-carboxamide] here?
Answer: The EC30 was < 3000 nM.

Question: For CC1CN(c2ncccc2C(=O)NS(=O)(=O)c2cccc(N3CCc4cc(Cl)ccc43)n2)C(C)(C)C1 (stereo not drawn) [Compound 2385, N—[[6-(5-chloroindolin-1-yl)-2-pyridyl]sulfonyl]-2-(2,2,4-trimethylpyrrolidin-1-yl)pyridine-3-carboxamide], which EC30 is on record?
Answer: Its EC30 is < 3000 nM.

Question: Which EC30 does the source give for CC1CN(c2ncccc2C(=O)NS(=O)(=O)c2cccc(Nc3ccc4[nH]ncc4c3)n2)C(C)(C)C1 (stereo not drawn) [Compound 2389, N—[[6-(1H-indazol-5-ylamino)-2-pyridyl]sulfonyl]-2-(2,2,4-trimethylpyrrolidin-1-yl)pyridine-3-carboxamide] here?
Answer: Its EC30 is 3000 to 10000 nM.

Question: Which EC30 does the source give for C[C@@H]1CN(c2nc(-c3ccc(O[C@@H](C)CO)nc3)ccc2C(=O)NS(=O)(=O)c2cccnc2N)C(C)(C)C1 [Compound 2687] here?
Answer: Its EC30 is 3000 to 10000 nM.

Question: Cc1cc(C)cc(-c2cnc(N3CC(C)CC3(C)C)c(C(=O)NS(=O)(=O)c3cccc(N)n3)c2)c1 (stereo not drawn) [Compound 2093, N-[(6-amino-2-pyridyl)sulfonyl]-5-(3,5-dimethylphenyl)-2-(2,2,4-trimethylpyrrolidin-1-yl)pyridine-3-carboxamide] was tested. Which EC30 did it give?
Answer: The EC30 was < 3000 nM.

Question: With CC1CN(c2ncccc2C(=O)NS(=O)(=O)c2cccc(OCc3ccc4ccccc4c3)n2)C(C)(C)C1 (stereo not drawn) [Compound 2151, N—[[6-(2-naphthylmethoxy)-2-pyridyl]sulfonyl]-2-(2,2,4-trimethylpyrrolidin-1-yl)pyridine-3-carboxamide] as the compound, how does the EC30 read?
Answer: Its EC30 is < 3000 nM.

Question: With CC[C@H](C)COc1ccn(-c2ccc(C(=O)NS(=O)(=O)c3cccnc3N)c(N3C[C@@H](C)CC3(C)C)n2)n1 [Compound 2458, N-[(2-amino-3-pyridyl)sulfonyl]-6-[3-[(2S)-2-methylbutoxy]pyrazol-1-yl]-2-[(4S)-2,2,4-trimethylpyrrolidin-1-yl]pyridine-3-carboxamide] as the compound, how does the EC30 read?
Answer: The EC30 was < 3000 nM.

Question: How did the EC30 turn out when CCC(CC)CNc1cccc(S(=O)(=O)NC(=O)c2cccnc2N2CC(C)CC2(C)C)n1 (stereo not drawn) [Compound 2305, N—[[6-(2-ethylbutylamino)-2-pyridyl]sulfonyl]-2-(2,2,4-trimethylpyrrolidin-1-yl)pyridine-3-carboxamide] was run?
Answer: Its EC30 is < 3000 nM.

Question: How did the EC30 turn out when COc1ccc2c(c1)CCN(c1cccc(S(=O)(=O)NC(=O)c3cccnc3N3CC(C)CC3(C)C)n1)C2 (stereo not drawn) [Compound 2260, N—[[6-(6-methoxy-3,4-dihydro-1H-isoquinolin-2-yl)-2-pyridyl]sulfonyl]-2-(2,2,4-trimethylpyrrolidin-1-yl)pyridine-3-carboxamide] was run?
Answer: The EC30 was < 3000 nM.

Same assay, conditions: Table 3; compounds of Table 1 as modulators of CFTR activity; protocol not stated

Question: Which EC30 does the source give for Cc1cc(C)c(Cn2nc(-c3c(C)cccc3C)cc2C(=O)NS(=O)(=O)c2cccc(N)c2)c(C)c1 [Compound 209, N-(3-aminophenyl) sulfonyl-5-(2,6-dimethylphenyl)-2-[(2,4,6-trimethylphenyl)methyl]pyrazole-3-carboxamide] here?
Answer: The EC30 was “+++ (“+++” means <3 uM)”.

Question: With Cc1cc(C)c(Cn2nc(OC(C)c3ccccc3)cc2C(=O)NS(=O)(=O)c2cccc(N)c2)c(C)c1 (stereo not drawn) [Compound 278, N-(3-aminophenyl)sulfonyl-5-(1-phenylethoxy)-2-[(2,4,6-trimethylphenyl)methyl]pyrazole-3-carboxamide] as the compound, how does the EC30 read?
Answer: Its EC30 is “++ (“++” means between 3 uM and 10 uM)”.

Question: Which EC30 does the source give for Cc1cccc(C)c1Cn1nc(-c2cccc(N(C)C)c2)cc1C(=O)NS(=O)(=O)c1ccccc1 [Compound 178, N-(benzenesulfonyl)-5-[3-(dimethylamino)phenyl]-2-[(2,6-dimethylphenyl)methyl]pyrazole-3-carboxamide] here?
Answer: The EC30 was “+++ (“+++” means <3 uM)”.

Question: Cc1cc(C)c(Oc2nc(-c3ccc(C#N)cc3)ccc2C(=O)NS(=O)(=O)c2cccc(N)n2)c(C)c1 [Compound 216, N-[(6-amino-2-pyridyl)sulfonyl]-6-(4-cyanophenyl)-2-(2,4,6-trimethylphenoxy)pyridine-3-carboxamide] was tested. Which EC30 did it give?
Answer: The EC30 was “+++ (“+++” means <3 uM)”.

Question: Which EC30 does the source give for CC(C)Oc1ccc(-c2ccc(C(=O)NS(=O)(=O)c3cccc(N)n3)c(N3CCC(Cc4ccccc4)C3C)n2)cn1 (stereo not drawn) [Compound 658, N-[(6-amino-2-pyridyl)sulfonyl]-2-(3-benzyl-2-methyl-pyrrolidin-1-yl)-6-(6-isopropoxy-3-pyridyl)pyridine-3-carboxamide] here?
Answer: Its EC30 is “+++ (“+++” means <3 uM)”.

Question: Cc1cc(C)c(Oc2nc(-c3cc(F)cc(OCC(C)C)c3)ccc2C(=O)NS(=O)(=O)c2cccc(N)n2)c(C)c1 [Compound 196, N-[(6-amino-2-pyridyl)sulfonyl]-6-(3-fluoro-5-isobutoxy-phenyl)-2-(2,4,6-trimethylphenoxy)pyridine-3-carboxamide] was tested. Which EC30 did it give?
Answer: The EC30 was “+++ (“+++” means <3 uM)”.

Question: How did the EC30 turn out when Cc1cc(C)c(Cn2c(C(=O)NS(=O)(=O)c3cccc(N)c3)c(C)c3ccccc32)c(C)c1 [Compound 118, N-(3-aminophenyl)sulfonyl-3-methyl-1-[(2,4,6-trimethylphenyl)methyl]indole-2-carboxamide] was run?
Answer: The EC30 was “++ (“++” means between 3 uM and 10 uM)”.

Question: Cc1cc(C)c(Oc2nc(C(C)(C)C)ccc2C(=O)NS(=N)(=O)c2cccc(N)c2)c(C)c1 (single isomer, unassigned) [Compound 19, N-[(3-aminophenyl)sulfonimidoyl]-6-tert-butyl-2-(2,4,6-trimethylphenoxy)pyridine-3-carboxamide] was tested. Which EC30 did it give?
Answer: The EC30 was “+++ (“+++” means <3 uM)”.

Question: Cc1cc(C)c(Oc2nc(-c3ccc(F)c(F)c3)ccc2C(=O)NS(=O)(=O)c2cccc(N)n2)c(C)c1 [Compound 725, N-[(6-amino-2-pyridyl)sulfonyl]-6-(3,4-difluorophenyl)-2-(2,4,6-trimethylphenoxy)pyridine-3-carboxamide] was tested. Which EC30 did it give?
Answer: The EC30 was “+++ (“+++” means <3 uM)”.

Question: Which EC30 does the source give for CC(C)(C)c1cc(C(=O)NS(=O)(=O)c2ccccc2)n(Cc2cccc(-n3cccc3)c2)n1 [Compound 108, N-(benzenesulfonyl)-5-tert-butyl-2-[(3-pyrrol-1-ylphenyl)methyl]pyrazole-3-carboxamide] here?
Answer: Its EC30 is “+++ (“+++” means <3 uM)”.

Question: For CC(C)COc1cc(F)cc(-c2ccc(C(=O)NS(=O)(=O)c3cccc(N)n3)c(N3CC[C@H](C)C3(C)C)n2)c1 [Compound 547, N-[(6-amino-2-pyridyl)sulfonyl]-6-(3-fluoro-5-isobutoxy-phenyl)-2-[(3S)-2,2,3-trimethylpyrrolidin-1-yl]pyridine-3-carboxamide], which EC30 is on record?
Answer: The EC30 was “+++ (“+++” means <3 uM)”.

Question: Cc1cc(C)c(CN2c3ccccc3C[C@@H]2C(=O)NS(=O)(=O)c2cccc(N)n2)c(C)c1 [Compound 462, (2R)—N-[(6-amino-2-pyridyl)sulfonyl]-1-[(2,4,6-trimethylphenyl)methyl]indoline-2-carboxamide] was tested. Which EC30 did it give?
Answer: The EC30 was “+++ (“+++” means <3 uM)”.
